In data set [1] the test system is VSV pseudotyped with GPs of all known subtypes of Ebolavirus (Zaire, Reston, Sudan, Ivory Coast). Type of data set: cell-based.
Data set [2] has as its system VSV pseudotyped with Ebola GP glycoprotein. In kind it is cell-based, Ebolavirus.
The subject of the next data set is VSV. In kind it is cell-based.
The subject of another data set is influenza virus. Type of data set: cell-based.
In data set [3] the test system is VSV pseudotyped with the GP protein of Marburgvirus. Type of data set: cell-based.
Data set [4] deals with phosphoinositide-3 (PI3) kinase-Akt pathway. Type of data set: cell-based.
The subject of another data set is EbolaΔVP30-GFP. In kind it is cell-based, Zaire ebolavirus.
A further data set concerns Ebolavirus minigenome. In kind it is cell-based.
Another data set has as its system VSVΔG*-Ebolavirus GP. In kind it is cell-based.
For another data set, the system named is adenovirus Ad-5. In kind it is cell-based.
The nature of the next data set: in vitro. As to conditions: green monkey.
For another data set, the system named is EbolaΔVP30-GFP virus. Description: microbe, parasite or virus in culture. In kind it is cell-based, Zaire ebolavirus.
Data set [5] deals with Vesicular stomatitis virus (VSV) strain Indiana. Type of data set: cell-based.
A further data set concerns vaccinia virus. Type of data set: cell-based.

Entries after “also recorded” stand apart in the source; their conditions may differ. Structures can show the parent of a compound that is named as a salt. Where two headings read alike, the source gives them in different places. Some results are limits rather than exact numbers.

Consider `CN1C2CCC1CC(OC(c1ccccc1)c1ccccc1)C2` (stereo not shown) [benztropine mesylate], for which the “reduction of titers of pseudotyped viruses” value in [1] is listed as 98-99%. Besides, the “infection of VSV pseudotyped with Ebola GP bound to cell surfaces” value in [2] is “inhibit infection”. In addition, in the data set on VSV, the “effect on growth of VSV” value is recorded as “does not affect the growth”. Moreover, the “effect on growth of influenza virus” value in the data set on influenza virus was “does not affect the growth”. Also, the “reduction of virus titers” value in [3] is reported as “about 75%”. Further, in [4], the “inhibition of the PI3 kinase-Akt pathway” value is listed as “did not inhibit”.
On to “17-Allylamino-17-demethoxygeldanamycin [17-AAG]”, for which the “reduction of EbolaΔVP30 virus growth” value with EbolaΔVP30-GFP is 92%. In the data set on Ebolavirus minigenome, the “% luc activity from the Ebolavirus minigenome” value (shortened to “% luc activity”) is 7.9%±1.5%. The “Infectivities of VSVΔG*-Ebolavirus GP standardized by the infectivities of VSVΔG*-VSV G” value (from here on “Infectivities … of VSVΔG*-VSV G”) with VSVΔG*-Ebolavirus GP (10 μM) amounted to 110%.
For `CC(=O)O[C@@H]1C[C@H]2C(C)(C)C(=O)C=C[C@]2(C)[C@H]2CC[C@@]3(C)[C@H](c4ccoc4)OC(=O)[C@H]4O[C@]43[C@@]21C` [Gedunin], the “inhibition of EbolaΔVP30-GFP growth” value in the data set on EbolaΔVP30-GFP was “completely inhibited”. Also, the “inhibition of adenovirus growth” value in the data set on adenovirus Ad-5 is given as “slightly inhibitory; also recorded: slightly delay the propagation”. Besides, in the data set “in vitro”, the CC50 was above 10000 nM. For the same molecule, the “% cell viability” value with VeroVP30 cells (green monkey) was determined as 77%. In the data set on Ebolavirus minigenome, the “% luc activity” value is recorded as 1.3%±0.2% and the “effect on protein expression from the Ebolavirus minigenome” value was “inhibit protein expression from the Ebolavirus minigenome”. The same molecule yielded an IC50 in the data set on EbolaΔVP30-GFP virus (Zaire ebolavirus) of 330 nM. In addition, the inhibition at 5 µM in the data set on EbolaΔVP30-GFP virus (Zaire ebolavirus, read-out: % GFP inhibition) was 102%. For the same molecule, the “inhibition of VSV growth” value in data set [5] was “slightly delay the propagation”. Further, the “inhibition of vaccinia virus growth” value with vaccinia virus is “slightly delay the propagation”.
Turning to `CCc1cc(-c2n[nH]c(C)c2-c2ccc3c(c2)OCCO3)c(O)cc1O` [CCT 018159, 4-[4-(2,3-Dihydro-1,4-benzodioxin-6-yl)-5-methyl-1H-pyrazol-3-yl]-6-ethyl-1,3-benzenediol], the “reduction of EbolaΔVP30 virus growth” value in the data set with EbolaΔVP30-GFP is on record as 97%. Besides, the “% luc activity” value in the data set on Ebolavirus minigenome is 8.8%±2.6%. For the same molecule, the “effect on VSVΔG*-Ebolavirus GP infectivity” value with VSVΔG*-Ebolavirus GP is “slightly reduced”. Further, in the data set with VSVΔG*-Ebolavirus GP (10 μM), the “Infectivities … of VSVΔG*-VSV G” value came to 71% and the “reduction in Ebolavirus GP-dependent virus infection” value is given as around 30%.
Consider `COC1=C2C[C@@H](C)C[C@H](OC)[C@H](O)[C@@H](C)/C=C(\C)[C@H](OC(N)=O)[C@@H](OC)/C=C\C=C(/C)C(=O)NC(=CC1=O)C2=O` [GM, geldanamycin], for which the “reduction of EbolaΔVP30 virus growth” value in the data set with EbolaΔVP30-GFP stood at 30%. The “% luc activity” value in the data set with Ebolavirus minigenome is on record as 24.7%±7.7%. Also, the “Infectivities … of VSVΔG*-VSV G” value in the data set on VSVΔG*-Ebolavirus GP (10 μM) came out at 137%.
The like results for `NS(=O)(=O)c1nn2cc(-c3ccccc3)nc2s1` [AEG 3482, 6-Phenylimidazo[2,1-b]-1,3,4-thiadiazole-2-sulfonamide] were, in that order, 5%, 34.0%±8.0% and 135%.
Take `CC(=O)O[C@@H]1CC2C(C)(C)C(=O)C3OC3[C@]2(C)C2CC[C@@]3(C)[C@H](c4ccoc4)OC(=O)C4OC43[C@@]21C` (stereo partly shown) [Epoxygedunin]: the “inhibition of EbolaΔVP30-GFP growth” value in the data set with EbolaΔVP30-GFP was “completely inhibited”. In the data set on VeroVP30 cells, the “% cell viability” value worked out at 71% and the CC50 was above 10000 nM. For the same molecule, in the data set on Ebolavirus minigenome, the “% luc activity” value was 1.0%±0.1% and the “effect on protein expression from the Ebolavirus minigenome” value was “inhibit protein expression from the Ebolavirus minigenome”. The “% GFP inhibition” value with EbolaΔVP30-GFP virus (5 µM) came to 103%. Also, in the data set with EbolaΔVP30-GFP virus (read-out: IC50), the IC50 is below 150 nM.

For orientation: IC50 means the concentration that gives 50% inhibition. Broadly, the inhibition is the relative decrease from the control value, in per cent.

The values are drawn from US9222118B2 (priority 2008, dated 2015).
